Data on 17 compounds can be found in patent publication US9132126B2, “Phenyl-isoxazole derivatives and preparation process thereof” (priority 2011, dated 2015).

Data set [1] concerns novel influenza virus (K09). The experiment in a line: microbe, parasite or virus in culture. In kind it is cell-based. Particulars: for SI value K09: CC50/EC50; for EC50: MDCK, 72 h, read-out: Plaque reduction (Experimental Example 2) EC50.
The test system of data set [2] is influenza virus (K09) expressing GFP. In kind it is cell-based. The arrangement: key: ◯ = effective; X = ineffective.
Data set [3] in a line: Cytotoxicity assay using MTT. The data set is classed as cell-based. Particulars: dog, MDCK cells infected with influenza virus (K09), MDCK cell infected with K09; compound 24 hours; read-out: MTT assay (Experimental Example 3) CC50. The protocol:
In this experiment, a cell was infected with a virus, and then the virus was directly treated with a compound so as to determine if the virus-infected cell has toxicity. For this, a cell (MDCK) was infected with an influenza virus (K09) for 1 hour, and treated with the compound with different concentrations for 24 hours. Then, the cell was treated with a MTT reagent for 1 hour. After 1 hour, a formazan crystal produced by the MTT reagent was dissolved in DMSO, and the absorbance was measured by an ELISA reader so as to determine CC50.
measured by MTT assay. A maximum concentration of the compound, at which the number of cells is reduced to half or more compared to that of a control group
Background: Tetrazolium assays rely on reduction of a dye to a coloured formazan, in cell work by metabolically active cells.

Data set [4] is described as follows: Acute toxicity test through oral administration in a rat. In kind it is in vivo. Conditions: Sprague-Dawley (SD), in vivo; male SD-Rat, single oral administration, 14 days observation. The protocol:
The acute toxicity of the inventive compound was determined through oral administration in a rat. Since the compound is expected to be orally administered in a clinical situation, an oral administration route was selected. A male rat aged 6 weeks (SD-Rat, 220±30 g) was subjected to quarantine, and acclimated for 1 week under a condition of lighting of 12 hours (08:00˜20:00), and luminance of 150-300 Lux at 22±3° C. at a relative humidity of 50±20%, while being freely fed with feed and water. Each of a control group and an experimental group include 8 rats. The control group was orally administered with 0.5% HPMC, and the experimental group was orally administered with a material (different concentrations) suspended in 0.5% HPMC, by using a sonde in an amount in proportion to the measured weight of each individual.
The concentration of the drug administered to the experimental group was set as 2000 mg/kg (the highest concentration for a single dose administration in a non-clinical test), and 1000 mg/kg, and 500 mg/kg (with a common ratio). For 14 days from drug administration, clinical symptoms were observed while the weight change was measured. Test animals that died during the test were subjected to autopsy, and abnormalities of main organs (heart, liver, lung, spleen, kidney, and large intestine) were observed and recorded. On the last day of the test (on the 14th day from the administration), all individuals were subjected to autopsy, and the changes of the organs caused by a test material were observed and compared to those in the control group. In the control group, no rats had died, and abnormalities were not observed through autopsy.
Each group was orally administered in a concentration of 500 mg/kg, 1000 mg/kg, and 2000 mg/kg. For 14 days from the administration, according to the test method, clinical symptoms were observed. […] Also, in the groups administered in various amounts, no individuals died. […] Further, no abnormal responses were observed, and from the autopsy results, no peculiarities were observed.

Converted amounts (≈) assume the structure as drawn.

Broadly, the EC50 is the concentration giving half of the maximal effect. As a reminder, the CC50 is the concentration that lowers cell viability or growth by half. The LD50 is the dose expected to kill half of the subjects tested. With `Cc1onc(-c2ccc(OC(F)(F)F)cc2)c1C(=O)N1CCN(c2ccc(Cl)c(Cl)c2)CC1` [Example 27, (4-(3,4-dichlorophenyl)piperazine-1-yl)(5-methyl-3-(4-(trifluoromethoxy)phenyl)isoxazol-4-yl)methanone], in data set [1], the “SI value K09” value is 2.5 to 8.13 and the 50% effective concentration (EC50) was 2.4 to 3.9 µg/mL (≈ 4.8 to 7.8 µM). In addition, the “GFP reduction (Experimental Example 1) effect” value (“GFP reduction” below) in data set [2] is listed as “◯”. For the same compound, the CC50 at 24 h in data set [3] lay within 9.77 to 19.5 µg/mL (≈ 19.5 to 39 µM). The compound further returned an LD50 at 14 days in data set [4] of more than 2000 mg/kg.

Consider `Cc1onc(-c2cccc(C(F)(F)F)c2)c1C(=O)N1CCN(c2ccc(Cl)c(Cl)c2)CC1` [Example 43, (4-(3,4-dichlorophenyl)piperazine-1-yl)(5-methyl-3-(3-(trifluoromethyl)phenyl)isoxazol-4-yl)methanone], for which the EC50 in data set [1] was more than 50 µg/mL. For the same compound, the “GFP reduction” value in data set [2] is “X”. Also, the CC50 at 24 h in data set [3] stood at 2500 µg/mL (≈ 5160 µM).

As for `Cc1onc(-c2cccc(OC(F)(F)F)c2)c1C(=O)N1CCN(c2ccc(Cl)c(Cl)c2)CC1` [Example 51, (4-(3,4-dichlorophenyl)piperazine-1-yl)(5-methyl-3-(3-(trifluoromethoxy)phenyl)isoxazol-4-yl)methanone], in data set [1], the “SI value K09” value lay in the range of 3.91 to 10.80 and the EC50 lay in the range of 2.4 to 3.9 µg/mL (≈ 4.8 to 7.8 µM). Moreover, in data set [2], the “GFP reduction” value is “◯”. Besides, the CC50 at 24 h in data set [3] is 15.2 to 25.9 µg/mL (≈ 30.5 to 51.8 µM).

Regarding `COc1ccccc1N1CCN(C(=O)c2c(-c3cccc(OC(F)(F)F)c3)noc2C)CC1` [Example 53, (4-(2-methoxyphenyl)piperazine-1-yl)(5-methyl-3-(3-(trifluoromethoxy)phenyl)isoxazol-4-yl)methanone], in data set [1], the “SI value K09” value is 160< and the EC50 is 3.12 µg/mL (≈ 6.76 µM). Moreover, the “GFP reduction” value in data set [2] is given as “◯”. Moreover, the half-maximal cytotoxic concentration (CC50) at 24 h in data set [3] is more than 500 µg/mL.

In the case of `COc1ccccc1N1CCN(C(=O)c2c(-c3ccccc3Cl)noc2N)CC1` [Example 61, (5-amino-3-(2-chlorophenyl)isoxazol-4-yl)(4-(2-methoxyphenyl)piperazine-1-yl)methanone], in data set [1], the “SI value K09” value was in the range of 159.94 to 319.89 and the half-maximal effective concentration (EC50) was determined as 0.39 µg/mL (≈ 0.945 µM). Moreover, the “GFP reduction” value in data set [2] was “◯”. Besides, the CC50 at 24 h in data set [3] was 62.5 to 125 µg/mL (≈ 151 to 303 µM). This compound also displayed an LD50 at 14 days in data set [4] of more than 2000 mg/kg.

`Nc1onc(-c2cccc(F)c2)c1C(=O)N1CCN(c2ccc(Cl)c(Cl)c2)CC1` [Example 67, (5-amino-3-(3-fluorophenyl)isoxazol-4-yl)(4-(3,4-dichlorophenyl)piperazine-1-yl)methanone]: in data set [1], the “SI value K09” value was in the range of 2.59 to 8.85 and the EC50 lay within 2.4 to 3.9 µg/mL (≈ 5.51 to 8.96 µM). The “GFP reduction” value in data set [2] is listed as “◯”. The 50% cytotoxic concentration (CC50) at 24 h in data set [3] lay within 10.1 to 21.2 µg/mL (≈ 23.2 to 48.8 µM).

Consider `COc1cccc(N2CCN(C(=O)c3c(-c4cccc(F)c4)noc3N)CC2)c1` [Example 68, (5-amino-3-(3-fluorophenyl)isoxazol-4-yl)(4-(3-methoxyphenyl)piperazine-1-yl)methanone], for which, in data set [1], the “SI value K09” value was in the range of 3.03 to 7.81 and the EC50 was in the range of 17.5 to 29 µg/mL (≈ 44.1 to 73.2 µM). Besides, in data set [2], the “GFP reduction” value is “◯”. The CC50 at 24 h in data set [3] was in the range of 88.1 to 137 µg/mL (≈ 222 to 345 µM).

In the case of `Nc1onc(-c2cccc(F)c2)c1C(=O)N1CCN(c2ccccc2O)CC1` [Example 72, (5-amino-3-(3-fluorophenyl)isoxazol-4-yl)(4-(2-hydroxyphenyl)piperazine-1-yl)methanone], in data set [1], the “SI value K09” value lay in the range of 0.31 to 1.25 and the EC50 lay within 25 to 50 µg/mL (≈ 65.4 to 131 µM). Moreover, in data set [2], the “GFP reduction” value is “◯”. The CC50 at 24 h in data set [3] fell in the range of 15.6 to 31.2 µg/mL (≈ 40.8 to 81.7 µM).

As to `Nc1onc(-c2ccccc2F)c1C(=O)N1CCN(c2ccc(Cl)c(Cl)c2)CC1` [Example 75, (5-amino-3-(2-fluorophenyl)isoxazol-4-yl)(4-(3,4-dichlorophenyl)piperazine-1-yl)methanone], in data set [1], the “SI value K09” value is 12.5 to 25.0 and the 50% effective concentration (EC50) is more than 50 µg/mL. Moreover, in data set [2], the “GFP reduction” value is given as “◯”. Besides, in data set [3], the CC50 at 24 h lay within 625 to 1250 µg/mL (≈ 1440 to 2870 µM).

In the case of `Nc1onc(-c2ccccc2C(F)(F)F)c1C(=O)N1CCN(c2ccc(Cl)c(Cl)c2)CC1` [Example 91, (5-amino-3-(2-(trifluoromethyl)phenyl)isoxazol-4-yl)(4-(3,4-dichlorophenyl)piperazine-1-yl)methanone], in data set [1], the “SI value K09” value fell in the range of 0.71 to 2.39 and the EC50 is 12.4 to 25.8 µg/mL (≈ 25.7 to 53.2 µM). In addition, the “GFP reduction” value in data set [2] is recorded as “◯”. Moreover, the CC50 at 24 h in data set [3] was 18.4 to 29.9 µg/mL (≈ 37.8 to 61.6 µM).

As for `COc1cccc(N2CCN(C(=O)c3c(-c4ccc(OC(F)(F)F)cc4)noc3N)CC2)c1` [Example 100, (5-amino-3-(4-(trifluoromethoxy)phenyl)isoxazol-4-yl)(4-(3-methoxyphenyl)piperazine-1-yl)methanone], in data set [1], the “SI value K09” value lay within 0.49 to 12.57 and the EC50 fell in the range of 29 to 37 µg/mL (≈ 62.7 to 80 µM). For the same compound, the “GFP reduction” value in data set [2] is listed as “◯”. For the same compound, in data set [3], the CC50 at 24 h lay within 18.4 to 46.5 µg/mL (≈ 39.9 to 101 µM).

Turning to `Nc1onc(-c2cccc(C(F)(F)F)c2)c1C(=O)N1CCN(c2ccc(Cl)c(Cl)c2)CC1` [Example 107, (5-amino-3-(3-(trifluoromethyl)phenyl)isoxazol-4-yl)(4-(3,4-dichlorophenyl)piperazine-1-yl)methanone], in data set [1], the “SI value K09” value lay in the range of 31.34 to 62.68 and the EC50 is 2.72 to 3.9 µg/mL (≈ 5.6 to 8.04 µM). Besides, the “GFP reduction” value in data set [2] is on record as “◯”. Moreover, the CC50 at 24 h in data set [3] lay in the range of 122 to 170 µg/mL (≈ 252 to 351 µM). In addition, the LD50 at 14 days in data set [4] was more than 2000 mg/kg.

In the case of `COc1ccccc1N1CCN(C(=O)c2c(-c3cccc(C(F)(F)F)c3)noc2N)CC1` [Example 109, (5-amino-3-(3-(trifluoromethyl)phenyl)isoxazol-4-yl)(4-(2-methoxyphenyl)piperazine-1-yl)methanone], in data set [1], the “SI value K09” value was in the range of 42.07 to 125.4 and the EC50 fell in the range of 1.52 to 3.5 µg/mL (≈ 3.4 to 7.84 µM). For the same compound, the “GFP reduction” value in data set [2] was “◯”. In data set [3], the CC50 at 24 h was in the range of 147 to 191 µg/mL (≈ 330 to 427 µM). The 50% lethal dose (LD50) at 14 days in data set [4] is more than 2000 mg/kg.

Regarding `Nc1onc(-c2cccc(C(F)(F)F)c2)c1C(=O)N1CCN(c2ccccc2O)CC1` [Example 112, (5-amino-3-(3-(trifluoromethyl)phenyl)isoxazol-4-yl)(4-(2-hydroxyphenyl)piperazine-1-yl)methanone], in data set [1], the “SI value K09” value is 0.33 to 1.37 and the EC50 was in the range of 25 to 50 µg/mL (≈ 57.8 to 116 µM). Moreover, the “GFP reduction” value in data set [2] is “◯”. Further, the cytotoxic concentration (CC50) at 24 h in data set [3] lay in the range of 16.5 to 34.3 µg/mL (≈ 38.2 to 79.3 µM).

With `Nc1onc(-c2cccc(OC(F)(F)F)c2)c1C(=O)N1CCN(c2ccc(Cl)c(Cl)c2)CC1` [Example 115, (5-amino-3-(3-(trifluoromethoxy)phenyl)isoxazol-4-yl)(4-(3,4-dichlorophenyl)piperazine-1-yl)methanone], in data set [1], the “SI value K09” value lay in the range of 0.34 to 1.70 and the EC50 was 21 to 45 µg/mL (≈ 41.9 to 89.8 µM). Further, in data set [2], the “GFP reduction” value was “◯”. Further, the CC50 at 24 h in data set [3] was in the range of 15.5 to 35.8 µg/mL (≈ 30.9 to 71.3 µM).

As to `COc1cccc(N2CCN(C(=O)c3c(-c4cccc(OC(F)(F)F)c4)noc3N)CC2)c1` [Example 116, (5-amino-3-(3-(trifluoromethoxy)phenyl)isoxazol-4-yl)(4-(3-methoxyphenyl)piperazine-1-yl)methanone], in data set [1], the “SI value K09” value lay within 0.42 to 1.70 and the EC50 lay in the range of 15 to 32 µg/mL (≈ 32.4 to 69.2 µM). Moreover, in data set [2], the “GFP reduction” value is “◯”. Further, the CC50 at 24 h in data set [3] fell in the range of 13.7 to 25.6 µg/mL (≈ 29.5 to 55.4 µM).

With `CCOC(=O)C1CCN(C(=O)c2c(-c3ccccc3Cl)noc2N)CC1` [Example 122, ethyl-1-(5-amino-3-(2-chlorophenyl)isoxazol-4-carbonyl)piperidine-4-carboxylate], in data set [1], the “SI value K09” value is recorded as 18.89 to 71.27 and the EC50 lay in the range of 4.5 to 8.5 µg/mL (≈ 11.9 to 22.5 µM). In data set [2], the “GFP reduction” value is given as “◯”. In addition, the CC50 at 24 h in data set [3] is 161 to 321 µg/mL (≈ 425 to 849 µM). The compound also registered an LD50 at 14 days in data set [4] of more than 2000 mg/kg.
